Data published in patent US12295936B2, “Immunomodulating urea azalides” (Zoetis Services LLC, priority 2020, dated 2025).

Experiments:
TNF-α = test: LPS-stimulated whole bovine blood assay, MSD cytokine detection; assay type: cell-based; details: Bos taurus, LPS-stimulated bovine whole blood; read-out: TNF-α (IC50 μM)
IL-6 = test: as above; assay type: cell-based; details: Bos taurus, LPS-stimulated bovine whole blood; read-out: IL-6 (IC50 μM)
Excerpt: In order to correlate RNA sequencing data to cytokine changes the whole blood assay was utilized. […] The enhancement result represents an overall stimulation of cytokine levels due to cellular stress or potential toxicity with increasing concentrations of the compound, representing a typical bell shape response curve for immunomodulatory activity.

[1] = system: BRD pathogens, M. haemolytica and P. multocida; test: MIC screening panel of BRD pathogens (antibacterial / non-antibacterial); details: read-out: antibacterial / non-antibacterial (MIC for the BRD pathogens)
IL-1β = test: LPS-stimulated whole bovine blood assay, MSD cytokine detection; assay type: cell-based; details: overstimulation of IL-1β, LPS-stimulated bovine whole blood

## CC[C@H]1OC(=O)[C@H](C)[C@@H](O[C@H]2C[C@@](C)(OC)[C@](O)(CNC3CC3)[C@H](C)O2)[C@H](C)[C@@H](O[C@@H]2O[C@H](C)C[C@H](N(C)C(=O)N(C)c3ccccc3)[C@H]2O)[C@](C)(O)C[C@@H](C)CN[C@H](C)[C@@H](O)[C@]1(C)O [Example H-27, 1-((2S,3R,4S,6R)-2-(((2R,3S,4R,5R,8R,10R,11R,12S,13S,14R)-13-(((2R,4R,5S,6S)-5-((cyclopropylamino)methyl)-5-hydroxy-4-methoxy-4,6-dimethyltetrahydro-2H-pyran-2-yl)oxy)-2-ethyl-3,4,10-trihydroxy-3,5,8,10,12,14-hexamethyl-15-oxo-1-oxa-6-azacyclopentadecan-11-yl)oxy)-3-hydroxy-6-methyltetrahydro-2H-pyran-4-yl)-1,3-dimethyl-3-phenylurea]
TNF-α
  IC50: 8 µM
IL-6
  IC50: 17 µM
[1]
  MIC: > 64 µg/mL
IL-1β
  IL-1β OS of LPS: 16 µM

## CC[C@H]1OC(=O)[C@H](C)[C@@H](O[C@H]2C[C@@](C)(OC)[C@](O)(CNCCC3CCOCC3)[C@H](C)O2)[C@H](C)[C@@H](O[C@@H]2O[C@H](C)C[C@H](N(C)C(=O)N(C)c3ccccc3)[C@H]2O)[C@](C)(O)C[C@@H](C)CN[C@H](C)[C@@H](O)[C@]1(C)O [Example H-33, 1-((2S,3R,4S,6R)-2-(((2R,3S,4R,5R,8R,10R,11R,12S,13S,14R)-2-ethyl-3,4,10-trihydroxy-13-(((2R,4R,5S,6S)-5-hydroxy-4-methoxy-4,6-dimethyl-5-(((2-(tetrahydro-2H-pyran-4-yl)ethyl)amino)methyl)tetrahydro-2H-pyran-2-yl)oxy)-3,5,8,10,12,14-hexamethyl-15-oxo-1-oxa-6-azacyclopentadecan-11-yl)oxy)-3-hydroxy-6-methyltetrahydro-2H-pyran-4-yl)-1,3-dimethyl-3-phenylurea]
TNF-α
  IC50: 37 µM
IL-6
  IC50: 57 µM
[1]
  MIC: > 64 µg/mL
IL-1β
  IL-1β OS of LPS: 6 µM

## CCCNC[C@]1(O)[C@H](C)O[C@@H](O[C@H]2[C@H](C)[C@@H](O[C@@H]3O[C@H](C)C[C@H](N(CCC)C(=O)N(C)c4ccc(C(F)(F)F)cc4)[C@H]3O)[C@](C)(O)C[C@@H](C)CN[C@H](C)[C@@H](O)[C@](C)(O)[C@@H](CC)OC(=O)[C@@H]2C)C[C@@]1(C)OC [Example H-8, 1-((2S,3R,4S,6R)-2-(((2R,3S,4R,5R,8R,10R,11R,12S,13S,14R)-2-ethyl-3,4,10-trihydroxy-13-(((2R,4R,5S,6S)-5-hydroxy-4-methoxy-4,6-dimethyl-5-((propylamino)methyl)tetrahydro-2H-pyran-2-yl)oxy)-3,5,8,10,12,14-hexamethyl-15-oxo-1-oxa-6-azacyclopentadecan-11-yl)oxy)-3-hydroxy-6-methyltetrahydro-2H-pyran-4-yl)-3-methyl-1-propyl-3-(4-(trifluoromethyl)phenyl)urea]
TNF-α
  IC50: 6 µM
IL-6
  IC50: 5 µM
[1]
  MIC: > 64 µg/mL
IL-1β
  IL-1β OS of LPS: 1 µM

## CC[C@H]1OC(=O)[C@H](C)[C@@H](O[C@H]2C[C@@](C)(OC)[C@](O)(CC#N)[C@H](C)O2)[C@H](C)[C@@H](O[C@@H]2O[C@H](C)C[C@H](N(C)C(=O)N(C)c3ccccc3)[C@H]2O)[C@](C)(O)C[C@@H](C)CN[C@H](C)[C@@H](O)[C@]1(C)O [Example G-2, 1-((2S,3R,4S,6R)-2-(((2R,3S,4R,5R,8R,10R,11R,12S,13S,14R)-13-(((2R,4R,5S,6S)-5-(cyanomethyl)-5-hydroxy-4-methoxy-4,6-dimethyltetrahydro-2H-pyran-2-yl)oxy)-2-ethyl-3,4,10-trihydroxy-3,5,8,10,12,14-hexamethyl-15-oxo-1-oxa-6-azacyclopentadecan-11-yl)oxy)-3-hydroxy-6-methyltetrahydro-2H-pyran-4-yl)-1,3-dimethyl-3-phenylurea]
TNF-α
  IC50: 80 µM
IL-6
  IC50: 70 µM
[1]
  MIC: > 64 µg/mL
IL-1β
  IL-1β OS of LPS: 100 µM
